Entries after “also recorded” stand apart in the source; their conditions may differ.
Tests used:
Assay type in all cases: in vivo, mouse
[1] = system: Tg2576 AD mice; assay: Hippocampal neuronal cell bodies by direct binding assay with [125I]-labeled anti-NeuN antibody, Tg2576 mice subjected to CUMS; details: 15-month-old Tg2576 mice, 3 months of CUMS with treatment, vs untreated stressed controls
Text: (§1) For a genetic model of familial AD (FAD), Tg2576 mice (Taconic Biosciences, Rensselaer, N.Y., USA) were used with neuron-specific overexpression of human APPSwe, i.e the Swedish mutation of APP695 isolated from a Swedish family with FAD featuring the double mutation K670N/M671L (Hsiao et al., Science 274, 99-103 (1996)). As a genetic model of tauopathy, the Tg-TauP301L mice (Model 2508, Taconic Biosciences, Rensselaer, N.Y., USA) with neuron-specific expression of the most common FTDP-17 (frontotemporal dementia and parkinsonism linked to chromosome 17) mutation (Lewis et al., Nature Genetics 25, 402-405 (2000)) were used. […]
(§2) Neuronal cell loss and hyperphosphorylated PHF Tau were determined in hippocampi of 15 months-old Tg2576 mice, which were treated without or with Compound-1 and Compound-4 for three months during the neurodegeneration-enhancing CUMS (chronic unpredictable mild stress) protocol. Neuronal cell loss was determined with crude homogenates of dissected hippocampi by direct binding assay with the neuron-specific [125]-labeled anti-NeuN antibody (MAB377, clone A60, EMD Millipore, Merck KGaA, Darmstadt, Germany). Similarly, the neuronal cell loss-causing PHF tau hyperphosphorylation was quantified with [125]-labeled AT8 antibody. […]

[2] = system: Tg2576 AD mice; assay: Hippocampal hyperphosphorylated PHF tau by direct binding assay with [125I]-labeled AT8 antibody, Tg2576 mice subjected to CUMS; details: 15-month-old Tg2576 mice, 3 months of CUMS with treatment, vs untreated stressed controls
Text: as §1, §2

[3] = system: male B6 mice; assay: Aging-induced deterioration of male sperm quality in B6 mice; details: 18-month-old male B6 mice, 15 months treatment; for epididymal sperm count / sperm vitality (eosin-nigrosin staining) / total sperm motility: 8 mg/kg/d in drinking water
Description: Sperm count, and motility were determined by microscopic semen analysis of male B6 mice at an age of 3 months and 18 months similarly as described (Komori et al., Reprod. Med. Biol. 5, 195-200, 2006). Sperm cells were isolated from male B6 mice from the epididymis as described (Esposito et al., Proc. Nat. Acad. Sci. U.S.A. 101, 2993-2998, 2004). Sperm concentration was determined with a Neubauer hemocytometer. Percentage of sperm motility was determined with a 10 microl sample loaded onto a clean slide glass and covered with a coverslip. Sperm motility was evaluated under positive phase-contrast microscopy at a total magnification of ×400, and graded according to the WHO criteria (Komori et al., Reprod. Med. Biol. 5, 195-200, 2006), i.e. percentage of motile sperm cells was counted, and the percentage of progressive and not progressive sperm motility was determined. At least 300 spermatozoa were evaluated. Spermatozoa viability was determined by eosin-nigrosine staining technique. A drop of spermatozoa suspension in PBS was mixed with one drop of aqueous eosin Y solution (1%), and incubated for 15 s. Thereafter, two drops of 10% aqueous nigrosine solution were added and mixed. An aliquot of this mixture was transferred to a glass slide, a thin smear was made, and air dried. Stained spermatozoa were examined under a light microscope, and the percentage of live sperm cells was determined. Live sperm cells appear white whereas dead sperm cells are coloured pink. Treatment of male B6 mice with Compound-1 and Compound-1F (8 mg/kg/d in drinking water) was started at an age of 3 months and continued until the end of the observation period at an age of 18 months.

Compound | hippocampal neuronal loss (anti-NeuN antibody binding) [1] | hippocampal content of hyperphosphorylated PHF Tau (AT8 binding) [2] | decrease in progressive sperm motility [3] | epididymal sperm count [3] | sperm vitality (eosin-nigrosin staining) [3] | total sperm motility [3]
O=C(C1=C(O)C(c2ccc(F)cc2)N(c2ccc3c(c2)OCO3)C1=O)C1CC1 (stereo not drawn) [Compound-1F, 1-(1,3-Benzodioxol-5-yl)-4-(cyclopropanecarbonyl)-2-(4-fluorophenyl)-3-hydroxy-2H-pyrrol-5-one] | retarded hippocampal neuronal loss | retarded | largely prevented | retarded the aging-induced decrease in epididymal sperm count | maintained sperm vitality | improved total sperm motility
O=C(C1=C(O)C(c2ccccc2)N(c2ccc3c(c2)OCO3)C1=O)C1CC1 (stereo not drawn) [Compound-1, 1-(1,3-benzodioxol-5-yl)-4-(cyclopropane-carbonyl)-3-hydroxy-2-phenyl-2H-pyrrol-5-one] | retarded hippocampal neuronal loss; also recorded: significantly retarded the loss of hippocampal neurons | retarded; also recorded: significantly decreased hippocampal content of hyperphosphorylated PHF Tau | largely prevented | retarded the aging-induced decrease in epididymal sperm count | maintained sperm vitality | improved total sperm motility

Reference: patent US20210015793A1, “COMPOUNDS FOR TREATING CNS- AND NEURODEGENERATIVE DISEASES” (ETH ZURICH, priority 2018, published 2021)
